Results from ChEMBL document CHEMBL5325509, “Pyrrolidinedione-thiazolidinone hybrid molecules with potent cytotoxic effect in squamous cell carcinoma SCC-15 cells” (Bioorg Med Chem, 2023).
pEC50, pIC50: −log10 of the molar value. Activity calls are given as the source filed them. The calls are words filed in the database; no cut-off is given here.

Tests used:
SCC-15 [1] = experiment: Induction of intracellular ROS generation in human SCC-15 cells incubated for 24 to 48 hrs by DCFH-DA staining based immunofluorescence analysis; assay type: functional, cell-based; conditions: dose 0.001-100 µM, time 24-48 hrs
SCC-15 [2] = experiment: Cytotoxicity against human SCC-15 cells assessed as LDH release incubated for 48 hrs; assay type: functional, cell-based; conditions: SCC-15, 48 h
[3] = Upregulation of AHR expression in PPARgamma-silenced human SCC-15 cells at 1 uM incubated for 48 hrs Western blot analysis relative to control; assay type: functional
Breast carcinoma cell = experiment: Cytotoxicity against human Breast carcinoma cell assessed as inhibition of cell growth measured at 72 hrs; assay type: functional, cell-based
[4] = Upregulation of PPARgamma expression in PPARgamma-silenced human SCC-15 cells at 1 uM incubated for 48 hrs Western blot analysis relative to SiRNA control; assay type: functional
[5] = Downregulation of PPARgamma mRNA expression in PPARgamma-silenced human SCC-15 cells at 1 uM measured after 24 hrs by RT-PCR analysis; assay type: functional
SCC-15 [6] = experiment: Cytotoxicity against human SCC-15 cells assessed as decrease in cellular metabolic activity incubated for 48 hrs by resazurin reduction assay; assay type: functional, cell-based; conditions: SCC-15, 48 h
[7] = Downregulation of AHR mRNA expression in PPARgamma-silenced human SCC-15 cells at 1 uM measured after 24 hrs by RT-PCR analysis; assay type: functional
[8] = Downregulation of AHR expression in PPARgamma-silenced human SCC-15 cells at 1 uM incubated for 48 hrs Western blot analysis relative to SiRNA control; assay type: functional
SCC-15 [9] = experiment: Cytotoxicity against human SCC-15 cells assessed as decrease in cellular metabolic activity at 10 to 100 uM incubated for 48 hrs by resazurin reduction assay relative to control; assay type: functional; set-up: scale not given: the % may be the effect or the level left; conditions: dose 10-100 µM
[10] = Downregulation of Ki67 expression in PPARgamma-silenced human SCC-15 cells at 1 uM incubated for 48 hrs Western blot analysis relative to siRNA control; assay type: functional
[11] = Upregulation of Caspase-3 activity in human SCC-15 cells at 100 uM measured after 48 hrs in presence of Ac-DEVD-AMC by fluorescence microplate reader analysis; assay type: functional
SCC-15 [12] = experiment: Induction of intracellular ROS generation in human SCC-15 cells at 0.001 to 10 uM incubated for 24 hrs by DCFH-DA staining based immunofluorescence analysis; assay type: functional, cell-based; conditions: dose 0.001-10 µM
SCC-15 [13] = experiment: Induction of intracellular ROS generation in human SCC-15 cells at 10 to 100 uM incubated for 48 hrs by DCFH-DA staining based immunofluorescence analysis; assay type: functional; conditions: dose 10-100 µM
Lung cancer cell line = experiment: Cytotoxicity against human Lung cancer cell line assessed as inhibition of cell growth measured at 72 hrs; assay type: functional, cell-based
[14] = Downregulation of NRFL2 mRNA expression in PPARgamma-silenced human SCC-15 cells at 1 uM measured after 24 hrs by RT-PCR analysis; assay type: functional
Glioblastoma cell line = experiment: Cytotoxicity against human Glioblastoma cell line assessed as inhibition of cell growth measured at 72 hrs; assay type: functional, cell-based
SCC-15 [15] = experiment: Cytotoxicity against human SCC-15 cells assessed as LDH release incubated for 24 hrs; assay type: functional, cell-based; conditions: SCC-15, 24 h
[16] = Cytotoxicity against human Cervical carcinoma cell assessed as inhibition of cell growth measured at 72 hrs; assay type: functional, cell-based
Colon carcinoma cell = experiment: Cytotoxicity against human Colon carcinoma cell assessed as inhibition of cell growth measured at 72 hrs; assay type: functional, cell-based
SCC-15 [17] = experiment: Cytotoxicity against human SCC-15 cells assessed as LDH release at 1 to 100 uM incubated for 48 hrs relative to control; assay type: functional; conditions: dose 1-100 µM
[18] = Upregulation of Caspase-3 activity in human SCC-15 cells at 100 uM measured after 24 hrs in presence of Ac-DEVD-AMC by fluorescence microplate reader analysis; assay type: functional
SCC-15 [19] = experiment: Induction of intracellular ROS generation in human SCC-15 cells at 50 to 100 uM incubated for 24 hrs by DCFH-DA staining based immunofluorescence analysis; assay type: functional; conditions: dose 50-100 µM
[20] = Upregulation of NRFL2 mRNA expression in PPARgamma knockdown human SCC-15 cells at 1 uM measured after 24 hrs by RT-PCR analysis; assay type: functional
BALB/3T3 = experiment: Cytotoxicity against mouse BALB/3T3 cells assessed reduction in cellular metabolic activity at 0.1 to 100 uM incubated for 24 to 72 hrs by MTT assay; assay type: toxicity, cell-based; conditions: balb/3t3, 100 µM, dose lower 0.1 µM, time lower 24 hrs, dose upper 100 µM, time upper 72 hrs
[21] = Downregulation of PPARgamma expression in PPARgamma-silenced human SCC-15 cells at 1 uM incubated for 48 hrs Western blot analysis relative to control; assay type: functional
HaCaT = experiment: Cytotoxicity against human HaCaT cells assessed reduction in cellular metabolic activity at 0.1 to 100 uM incubated for 24 to 72 hrs by MTT assay; assay type: toxicity, cell-based; conditions: dose lower 0.1 µM, time lower 24 hrs, dose upper 100 µM, time upper 72 hrs
[22] = Cytotoxicity against human HaCaT cells assessed reduction in cellular metabolic activity incubated for 24 to 72 hrs by MTT assay; assay type: toxicity, cell-based
SCC-15 [23] = experiment: Induction of intracellular ROS generation in human SCC-15 cells at 0.001 to 10 uM incubated for 48 hrs by DCFH-DA staining based immunofluorescence analysis; assay type: functional; conditions: dose 0.001-10 µM
SCC-15 [24] = experiment: Induction of intracellular ROS generation in human SCC-15 cells at 0.001 to 100 uM by DCFH-DA staining based immunofluorescence analysis; assay type: functional, cell-based; conditions: dose 0.001-100 µM, time 24-48 hrs, TDE = time-dependent effect
[25] = Cytotoxicity against mouse BALB/3T3 cells assessed reduction in cellular metabolic activity incubated for 24 to 72 hrs by MTT assay; assay type: toxicity, cell-based
SCC-15 [26] = experiment: Cytotoxicity against human SCC-15 cells assessed as decrease in cellular metabolic activity at 100 uM incubated for 24 hrs by resazurin reduction assay relative to control; assay type: functional; set-up: scale not given: the % may be the effect or the level left
[27] = Upregulation of Caspase-3 activity in human SCC-15 cells at 50 uM measured after 24 hrs in presence of Ac-DEVD-AMC by fluorescence microplate reader analysis; assay type: functional
SCC-15 [28] = experiment: Cytotoxicity against human SCC-15 cells assessed as decrease in cellular metabolic activity incubated for 24 hrs by resazurin reduction assay; assay type: functional, cell-based; conditions: SCC-15, 24 h
Leukemic tumor cell line = experiment: Cytotoxicity against human Leukemic tumor cell line assessed as inhibition of cell growth measured at 72 hrs; assay type: functional, cell-based
[29] = Downregulation of Ki67 expression in PPARgamma-silenced human SCC-15 cells at 1 uM incubated for 48 hrs Western blot analysis relative to control; assay type: functional
SCC-15 [30] = experiment: Cytotoxicity against human SCC-15 cells assessed as LDH release at 1 to 100 uM incubated for 24 hrs relative to control; assay type: functional; conditions: dose 1-100 µM
[31] = Upregulation of PPARgamma expression in PPARgamma-silenced human SCC-15 cells at 1 uM incubated for 48 hrs Western blot analysis relative to control; assay type: functional
[32] = Downregulation of PCNA expression in PPARgamma-silenced human SCC-15 cells at 1 uM incubated for 48 hrs Western blot analysis relative to siRNA control; assay type: functional
SCC-15 [33] = experiment: Cytotoxicity against human SCC-15 cells assessed as LDH release at 50 uM incubated for 48 hrs relative to control; assay type: functional
SCC-15 [34] = experiment: Cytotoxicity against human SCC-15 cells assessed as LDH release at 50 nM incubated for 48 hrs relative to control; assay type: functional
[35] = Downregulation of PPARgamma mRNA expression in human SCC-15 cells at 1 uM measured after 24 hrs by RT-PCR analysis (reference value: 79.68 %); assay type: functional
SCC-15 [36] = experiment: Cytotoxicity against human SCC-15 cells assessed as LDH release at 100 uM incubated for 48 hrs relative to control; assay type: functional
[37] = Cytotoxicity against human HaCaT cells assessed reduction in cellular metabolic activity incubated for 72 hrs by MTT assay; assay type: toxicity, cell-based
[38] = Downregulation of NRFL2 mRNA expression in human SCC-15 cells at 1 uM measured after 24 hrs by RT-PCR analysis (reference value: 18.36 %); assay type: functional
[39] = Cytotoxicity against mouse BALB/3T3 cells assessed reduction in cellular metabolic activity incubated for 72 hrs by MTT assay; assay type: toxicity, cell-based
[40] = Downregulation of PPARgamma expression in PPARgamma-silenced human SCC-15 cells at 1 uM incubated for 48 hrs Western blot analysis relative to SiRNA control; assay type: functional
[41] = Upregulation of Caspase-3 activity in human SCC-15 cells at 50 uM measured after 48 hrs in presence of Ac-DEVD-AMC by fluorescence microplate reader analysis; assay type: functional
[42] = Downregulation of AHR mRNA expression in human SCC-15 cells at 1 uM measured after 24 hrs by RT-PCR analysis (reference value: 17.30 %); assay type: functional
[43] = Downregulation of PCNA expression in PPARgamma-silenced human SCC-15 cells at 1 uM incubated for 48 hrs Western blot analysis relative to control; assay type: functional
SCC-15 [44] = experiment: Cytotoxicity against human SCC-15 cells assessed as LDH release at 10 uM incubated for 48 hrs relative to control; assay type: functional
SCC-15 [45] = experiment: Cytotoxicity against human SCC-15 cells assessed as LDH release at 1 uM incubated for 48 hrs relative to control; assay type: functional
SCC-15 [46] = experiment: Induction of intracellular ROS generation in human SCC-15 cells at 0.001 to 1 uM incubated for 24 to 48 hrs by DCFH-DA staining based immunofluorescence analysis; assay type: functional, cell-based; conditions: dose 0.001-1 µM, time 24-48 hrs
SCC-15 [47] = experiment: Induction of intracellular ROS generation in human SCC-15 cells at 50 to 100 uM incubated for 48 hrs by DCFH-DA staining based immunofluorescence analysis; assay type: functional; conditions: dose 50-100 µM

| Structure (SMILES) | Activity (SCC-15 [1]) | pEC50 (SCC-15 [2]) | Activity [5] [%] | pIC50 (SCC-15 [6]) | Activity [7] [%] | Activity [8] [%] | Activity (SCC-15 [9]) [%] | Activity [10] [%] | Activity [11] [%] | Activity [14] [%] | pEC50 (SCC-15 [15]) | Activity [18] [%] | Activity [20] [%] | Activity (BALB/3T3) | Activity [21] [%] | Activity (HaCaT) | pIC50 [22] | Activity (SCC-15 [24]) | pIC50 [25] | Activity (SCC-15 [26]) [%] | also measured |
| --- | --- | --- | --- | --- | --- | --- | --- | --- | --- | --- | --- | --- | --- | --- | --- | --- | --- | --- | --- | --- | --- |
| O=C1CC(N2C(=O)/C(=C/C(Cl)=C/c3ccc([N+](=O)[O-])cc3)SC2=S)C(=O)N1c1ccc(Cl)cc1 (centres undefined) | Dose-Dependent Effect | 4.99 | 82.31 | 4.52 | 9.11 | 32.59 | 31.6 | 44.91 | 55.58 | 30.64 | 4.83 | 135.01 | 12.9 | Non-Toxic | 46.82 | Non-Toxic | < 4.00 | Tde | < 4.00 | 34.08 | Activity [3]: 17.79%; pIC50 (Breast carcinoma cell): 6.00; Activity [4]: 26.46%; Activity (SCC-15 [12]): inactive; Activity (SCC-15 [13]): 13.13%; pIC50 (Lung cancer cell line): 6.00; pIC50 (Glioblastoma cell line): 6.00; pIC50 [16]: 6.00; pIC50 (Colon carcinoma cell): 6.00; Activity (SCC-15 [17]): 49.3%; Activity (SCC-15 [19]): 18.64%; Activity (SCC-15 [23]): 15.81%; Activity [27]: 29.03%; pIC50 (SCC-15 [28]): < 4.00; pIC50 (Leukemic tumor cell line): 6.00; Activity [29]: 42.01%; Activity (SCC-15 [30]): 2%; Activity [31]: 23.81%; Activity [32]: 34.64% |
| O=C1CC(N2C(=O)/C(=C/C(Cl)=C/c3ccc([N+](=O)[O-])cc3)SC2=S)C(=O)N1c1ccc(Br)cc1 (centres undefined) | Dose-Dependent Effect | 4.77 | 73.1 | 4.40 | 10.4 | 32.23 | 24.52 | 39.67 | 57.04 | 26.91 | 4.81 | 121.15 | 17.1 | Non-Toxic | 14.43 | Non-Toxic | < 4.00 | Tde | < 4.00 | 27.07 | Activity (SCC-15 [33]): 178.4%; Activity (SCC-15 [34]): 2%; Activity [35]: 12.29%; Activity (SCC-15 [36]): 328%; IC50 at 72 h [37]: 83.6 µM; Activity [38]: 8.55%; IC50 at 72 h [39]: 85.2 µM; Activity [40]: 18.45%; Activity [41]: 21.08%; Activity [42]: 11.84%; Activity [43]: 12.74%; Activity (SCC-15 [44]): 30%; Activity (SCC-15 [45]): 1.2%; Activity (SCC-15 [46]): inactive; Activity [27]: 42.87%; pIC50 (SCC-15 [28]): < 4.00; Activity (SCC-15 [47]): 12%; Activity [29]: 17%; Activity [31]: 11.23%; Activity [32]: 24.94% |
